Patent US12162896B2, “Salts and polymorphs of certain MCL-1 inhibitors” (Gilead Sciences, Inc., priority 2022, dated 2024)
Structures can show the parent of a compound that is named as a salt.

What was measured:
[1] = Competitive slurries of polymorph forms in EtOH; assay type: physicochemical; conditions: for outcome of competitive slurry with Form I: in EtOH
[2] = XRPD analysis of the sample post DVS (form change); assay type: physicochemical; conditions: sample after DVS cycles at 25° C.
Description: X-ray powder diffraction (XRPD) analysis was conducted on a diffractometer (PANalytical XPERT-PRO, PANalytical B. V., Almelo, Netherlands) using copper radiation (Cu Kα, λ=1.541874). Samples were spread evenly on a zero-background sample plate. The generator was operated at a voltage of 45 kV and amperage of 40 mA. Slits were Soller 0.02 rad, antiscatter 1.0°, and divergence. Scans were performed from 2 to 40° 2−θ with a 0.0167 step size. Data analysis was performed using X'Pert Data Viewer V1.2d (PANalytical B.V., Almelo, Netherlands).
(§1) Hygroscopicity was studied using dynamic vapor sorption (DVS, TA Q5000 SA, TA Instruments, New Castle, DE or DVS, DVS Intrinsic, Surface Measurement Systems, London, UK). A sample (2-20 mg) was placed in an aluminum DVS pan and loaded on the sample side of the twin pan balance. The water sorption and desorption were studied as a function of relative humidity (RH) at 25° C. In 10% RH increments, the relative humidity was increased from 40% RH to 90% RH and then decreased back to 0%, followed by repeating the full cycle from 0% RH up to 90% RH and back to 0% RH. […] Data analysis was performed using Universal Analysis 2000 Version 4.5A (TA Instruments, New Castle, DE) for TA DVS runs and Microsoft Excel for SMS DVS runs.

[3] = Hygroscopicity by dynamic vapor sorption (DVS); assay type: physicochemical; conditions: for hygroscopicity (DVS analysis, in words): 0% to 90% RH, about 25° C.; for water (moisture) absorbed by DVS: between 0% and 90% RH at about 25° C.
Description: as §1

[4] = target: MCL-1 (Homo sapiens, UniProt Q07820); conditions: stated in background, WO 2019/222112; cited from earlier work
MCL-1, sequence (Q07820 whole entry, species assumed): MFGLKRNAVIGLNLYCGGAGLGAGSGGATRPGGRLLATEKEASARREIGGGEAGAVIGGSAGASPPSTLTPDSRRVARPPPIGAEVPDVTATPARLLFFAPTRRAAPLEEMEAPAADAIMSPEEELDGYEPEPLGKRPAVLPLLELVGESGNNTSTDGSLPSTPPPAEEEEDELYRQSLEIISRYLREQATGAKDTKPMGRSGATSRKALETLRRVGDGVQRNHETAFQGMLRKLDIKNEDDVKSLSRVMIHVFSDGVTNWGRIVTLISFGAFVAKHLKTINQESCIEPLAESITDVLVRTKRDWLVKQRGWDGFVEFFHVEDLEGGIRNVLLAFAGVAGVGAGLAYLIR

outcome of competitive slurry with Form I [1] | form change by XRPD post DVS [2] | hygroscopicity (DVS analysis, in words) [3] | water (moisture) absorbed by DVS [3] | relative stability versus other unsolvated/desolvated forms ([1]; competitive slurries in EtOH) | moisture rapidly absorbed at ambient conditions ([3]; ambient conditions) | SMILES | MCL-1 inhibition (in words) [4]
full conversion to Form I |  |  |  |  |  | COc1nn(C)cc1C(=O)N[S@@]1(=O)=NC(=O)c2ccc3c(c2)N(C[C@@H]2CC[C@H]2[C@@H](OC)/C=C/C[C@H](C)C1)C[C@@]1(CCCc2cc(Cl)ccc21)CO3 [Form IV] | 
 | no form change | slightly hygroscopic | about 1.4 wt % | higher stability |  | COc1nn(C)cc1C(=O)N[S@@]1(=O)=NC(=O)c2ccc3c(c2)N(C[C@@H]2CC[C@H]2[C@@H](OC)/C=C/C[C@H](C)C1)C[C@@]1(CCCc2cc(Cl)ccc21)CO3 [Form I] | 
full conversion to Form I | no form change | slightly hygroscopic | up to 1.1 wt % |  |  | COc1nn(C)cc1C(=O)N[S@@]1(=O)=NC(=O)c2ccc3c(c2)N(C[C@@H]2CC[C@H]2[C@@H](OC)/C=C/C[C@H](C)C1)C[C@@]1(CCCc2cc(Cl)ccc21)CO3 [Form II] | 
full conversion to Form I | no form change | moderately hygroscopic | up to 5 wt % |  |  | COc1nn(C)cc1C(=O)N[S@@]1(=O)=NC(=O)c2ccc3c(c2)N(C[C@@H]2CC[C@H]2[C@@H](OC)/C=C/C[C@H](C)C1)C[C@@]1(CCCc2cc(Cl)ccc21)CO3 [Form III] | 
 | no form change | moderately hygroscopic | about 7.5 wt % |  |  | COc1nn(C)cc1C(=O)N[S@@]1(=O)=NC(=O)c2ccc3c(c2)N(C[C@@H]2CC[C@H]2[C@@H](OC)/C=C/C[C@H](C)C1)C[C@@]1(CCCc2cc(Cl)ccc21)CO3 [Na salt Form 1] | 
 |  |  |  |  |  | COc1nn(C)cc1C(=O)N[S@@]1(=O)=NC(=O)c2ccc3c(c2)N(C[C@@H]2CC[C@H]2[C@@H](OC)/C=C/C[C@H](C)C1)C[C@@]1(CCCc2cc(Cl)ccc21)CO3 [Compound 1] | effective MCL-1 inhibitor
 | no form change | moderately hygroscopic | about 5.5 wt % |  |  | COc1nn(C)cc1C(=O)N[S@@]1(=O)=NC(=O)c2ccc3c(c2)N(C[C@@H]2CC[C@H]2[C@@H](OC)/C=C/C[C@H](C)C1)C[C@@]1(CCCc2cc(Cl)ccc21)CO3 [DEA Salt Form 1] | 
 | no form change | moderately hygroscopic | about 11 wt % |  | 4-6 wt % | COc1nn(C)cc1C(=O)N[S@@]1(=O)=NC(=O)c2ccc3c(c2)N(C[C@@H]2CC[C@H]2[C@@H](OC)/C=C/C[C@H](C)C1)C[C@@]1(CCCc2cc(Cl)ccc21)CO3 [K Salt Form 1] | 
